Measured values: ChEMBL document CHEMBL5346964, “Discovery of LNP1892: A Precision Calcimimetic for the Treatment of Secondary Hyperparathyroidism” (J Med Chem, 2023)

Tests used:
[1] = molecular target: T1, CYP2D6 (Homo sapiens, UniProt P10635); experiment: Inhibition of CYP2D6 in human liver microsomes at 10 uM preincubated for 5 mins followed by NADPH addition by LC-MS/MS analysis relative to control; type: ADME, Microsome
[2] = molecular target: T1, CYP2D6; experiment: Inhibition of CYP2D6 in human liver microsomes at 1 uM preincubated for 5 mins followed by NADPH addition by LC-MS/MS analysis relative to control; type: ADME, Microsome
[3] = Microsomal stability in rat liver microsomes assessed as parent compound remaining at 1 uM measured upto 30 mins in presence of NADPH by LC-MS/MS analysis; type: ADME, Microsome; details: read-out: Stability
[4] = molecular target: T2, Voltage-gated inwardly rectifying potassium channel KCNH2 (Homo sapiens, UniProt Q12809); experiment: Inhibition of hERG at 10 uM relative to control; type: toxicity; details: 10 µM
T2 sequence (Q12809 whole entry): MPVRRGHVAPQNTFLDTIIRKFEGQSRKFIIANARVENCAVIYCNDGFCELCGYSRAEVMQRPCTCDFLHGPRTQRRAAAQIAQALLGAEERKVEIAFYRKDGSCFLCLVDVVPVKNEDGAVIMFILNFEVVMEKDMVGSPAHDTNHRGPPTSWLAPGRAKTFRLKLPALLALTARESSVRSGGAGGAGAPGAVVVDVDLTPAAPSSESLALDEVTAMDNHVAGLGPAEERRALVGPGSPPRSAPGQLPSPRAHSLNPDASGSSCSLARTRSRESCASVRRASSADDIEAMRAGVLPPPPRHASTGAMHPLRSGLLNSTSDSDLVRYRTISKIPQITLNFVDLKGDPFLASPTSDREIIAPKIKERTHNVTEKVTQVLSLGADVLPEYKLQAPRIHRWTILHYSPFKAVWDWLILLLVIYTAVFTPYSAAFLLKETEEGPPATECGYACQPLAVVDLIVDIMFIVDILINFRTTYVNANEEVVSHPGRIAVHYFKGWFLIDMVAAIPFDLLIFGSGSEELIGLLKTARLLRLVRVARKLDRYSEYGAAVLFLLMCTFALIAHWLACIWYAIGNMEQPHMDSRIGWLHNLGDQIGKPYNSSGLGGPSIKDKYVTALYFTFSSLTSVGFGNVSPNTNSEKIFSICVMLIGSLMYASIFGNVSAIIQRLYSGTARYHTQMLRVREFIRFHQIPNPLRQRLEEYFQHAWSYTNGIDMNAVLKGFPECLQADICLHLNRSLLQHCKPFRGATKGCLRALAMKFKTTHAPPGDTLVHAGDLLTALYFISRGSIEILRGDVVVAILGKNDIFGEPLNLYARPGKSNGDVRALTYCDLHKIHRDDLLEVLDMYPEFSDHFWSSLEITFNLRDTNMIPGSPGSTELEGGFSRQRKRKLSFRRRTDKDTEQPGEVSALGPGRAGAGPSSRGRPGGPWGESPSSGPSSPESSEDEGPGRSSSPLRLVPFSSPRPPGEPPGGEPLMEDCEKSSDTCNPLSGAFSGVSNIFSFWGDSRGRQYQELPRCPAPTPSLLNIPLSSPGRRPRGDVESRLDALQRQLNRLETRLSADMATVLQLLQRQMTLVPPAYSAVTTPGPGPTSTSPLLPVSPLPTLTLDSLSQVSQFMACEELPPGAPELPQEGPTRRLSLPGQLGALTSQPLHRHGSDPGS

[5] = molecular target: T3, Extracellular calcium-sensing receptor (Homo sapiens, UniProt P41180); experiment: Agonist activity at human CaSR expresssed in HEK293 cells in presence of glucose by Fluo4NW dye based FLIPR assay; type: functional, cell-based; details: read-out: EC50
T3 sequence (P41180 whole entry): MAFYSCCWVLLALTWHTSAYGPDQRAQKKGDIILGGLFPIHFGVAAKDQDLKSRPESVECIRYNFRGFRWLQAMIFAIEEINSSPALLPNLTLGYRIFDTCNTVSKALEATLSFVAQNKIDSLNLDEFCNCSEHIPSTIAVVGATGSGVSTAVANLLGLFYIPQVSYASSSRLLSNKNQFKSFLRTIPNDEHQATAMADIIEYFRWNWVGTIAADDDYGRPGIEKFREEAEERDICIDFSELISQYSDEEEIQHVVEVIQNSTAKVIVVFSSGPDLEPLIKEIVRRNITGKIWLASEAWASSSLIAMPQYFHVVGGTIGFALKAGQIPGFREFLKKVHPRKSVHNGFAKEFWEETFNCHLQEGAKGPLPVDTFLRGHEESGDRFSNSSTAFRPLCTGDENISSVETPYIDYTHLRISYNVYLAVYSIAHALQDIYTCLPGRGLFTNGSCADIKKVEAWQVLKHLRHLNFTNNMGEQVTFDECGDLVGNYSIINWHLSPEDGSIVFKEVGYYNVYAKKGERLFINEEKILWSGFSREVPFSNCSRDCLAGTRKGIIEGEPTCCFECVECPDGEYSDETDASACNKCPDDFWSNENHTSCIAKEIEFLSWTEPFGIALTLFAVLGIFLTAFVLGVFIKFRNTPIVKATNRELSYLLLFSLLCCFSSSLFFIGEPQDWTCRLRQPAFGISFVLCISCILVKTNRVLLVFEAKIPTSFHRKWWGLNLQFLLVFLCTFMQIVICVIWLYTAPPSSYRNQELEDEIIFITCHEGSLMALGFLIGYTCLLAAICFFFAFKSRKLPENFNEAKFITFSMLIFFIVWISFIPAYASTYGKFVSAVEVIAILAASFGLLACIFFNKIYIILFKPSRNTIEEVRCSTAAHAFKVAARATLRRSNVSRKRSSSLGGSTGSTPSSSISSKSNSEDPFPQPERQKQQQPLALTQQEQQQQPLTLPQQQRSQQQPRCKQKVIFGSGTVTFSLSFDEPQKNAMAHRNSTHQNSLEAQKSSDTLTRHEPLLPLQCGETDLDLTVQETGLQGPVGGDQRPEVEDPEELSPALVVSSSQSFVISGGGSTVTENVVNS

[6] = molecular target: T2, Voltage-gated inwardly rectifying potassium channel KCNH2; experiment: Inhibition of hERG at 1 uM relative to control; type: toxicity; details: 1 µM
[7] = Microsomal stability in human liver microsomes assessed as parent compound remaining at 1 uM measured upto 30 mins in presence of NADPH by LC-MS/MS analysis; type: ADME, Microsome
[8] = in vivo; details: Sprague-Dawley, rat, po, 1 mg/kg
Description: Cmax in Sprague-Dawley rat at 1 mg/kg, po measured upto 24 hrs by LC-MS/MS analysis

[9] = AUClast in Sprague-Dawley rat at 0.3 mg/kg, iv measured upto 24 hrs by LC-MS/MS analysis; type: ADME, organism-based; parameters: dose 0.3 mg/kg, time < 24 hrs, route iv; details: in vivo
[10] = in vivo; details: Sprague-Dawley, rat, po, 1 mg/kg; remark: listed apart in the source
Description: Tmax in Sprague-Dawley rat at 1 mg/kg, po measured upto 24 hrs by LC-MS/MS analysis

[11] = Volume of distribution at steady state in Sprague-Dawley rat at 0.3 mg/kg, iv measured upto 24 hrs by LC-MS/MS analysis; details: in vivo
[12] = Clearance in Sprague-Dawley rat at 0.3 mg/kg, iv measured upto 24 hrs by LC-MS/MS analysis; details: in vivo
[13] = Half life in Sprague-Dawley rat at 0.3 mg/kg, iv measured upto 24 hrs by LC-MS/MS analysis; details: in vivo
[14] = in vivo; details: Sprague-Dawley, rat, iv, 0.3 mg/kg
Description: Cmax in Sprague-Dawley rat at 0.3 mg/kg, iv measured upto 24 hrs by LC-MS/MS analysis

[15] = AUClast in Sprague-Dawley rat at 1 mg/kg, po measured upto 24 hrs by LC-MS/MS analysis; type: ADME, organism-based; parameters: dose 1 mg/kg, time < 24 hrs, route po; details: in vivo
[16] = Half life in Sprague-Dawley rat at 1 mg/kg, po measured upto 24 hrs by LC-MS/MS analysis; details: in vivo

T1 sequence (P10635 whole entry): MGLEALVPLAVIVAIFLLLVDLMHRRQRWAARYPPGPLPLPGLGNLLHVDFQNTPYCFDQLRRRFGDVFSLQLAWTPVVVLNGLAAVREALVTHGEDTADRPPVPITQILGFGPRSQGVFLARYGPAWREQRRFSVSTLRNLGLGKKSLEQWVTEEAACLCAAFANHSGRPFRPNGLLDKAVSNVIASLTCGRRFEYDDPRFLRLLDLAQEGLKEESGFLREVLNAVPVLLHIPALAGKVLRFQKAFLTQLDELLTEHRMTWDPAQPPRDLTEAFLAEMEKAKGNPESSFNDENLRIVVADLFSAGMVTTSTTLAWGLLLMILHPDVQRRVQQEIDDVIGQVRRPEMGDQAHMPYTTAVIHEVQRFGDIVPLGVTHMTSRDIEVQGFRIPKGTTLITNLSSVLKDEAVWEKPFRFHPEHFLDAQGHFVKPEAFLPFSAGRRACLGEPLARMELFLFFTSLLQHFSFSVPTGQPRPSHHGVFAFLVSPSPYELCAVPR

inhibition at 10 µM [1] [%]	inhibition at 1 µM [2] [%]	remaining at 0.5 h, 1 µM [3] [%]	EC50 [5] [nM]	Stability ([7]; microsomes, 0.5 h, 1 µM) [%]	Cmax at 24 h [8] [µM]	AUC(0-t) at 24 h [9] [µM·h]	Tmax at 24 h [10] [h]	Vd at 24 h [11] [L/kg]	clearance at 24 h [12] [mL/min/kg]	half-life at 24 h [13] [h]	Cmax at 24 h [14] [µM]	AUC(0-t) at 24 h [15] [µM·h]	half-life at 24 h [16] [h]	remaining at 0.5 h, 1 µM ([7]; liver microsomes, read-out: Stability) [%]	Compound	inhibition (INH) [4] [%]	inhibition (INH) [6] [%]
43	26	45	47.5	40	–	–	–	–	–	–	–	–	–	–	Cc1c(C(=O)O)cccc1N1CC(CN[C@H](C)c2cccc3ccccc23)Oc2ccccc21.Cl (mixture of isomers; form 1)	-5	-8
–	–	34	–	–	5.84	8.03	0.81	0.591	1.67	7.32	0.27	23	6.13	68	C[C@@H](N[C@H]1CCN(c2ccc(CC(=O)O)cc2)C1)c1cccc2ccccc12 [EVOCALCET]	–	–
